Results: patent publication US11753407B2, “Compounds for treating spinal muscular atrophy” (PTC Therapeutics, Inc., priority 2012, dated 2023)

Tests used:
[1] = system: SMN2 minigene mRNA (SMN2-A minigene) in HEK293H cells; assay: SMN2 minigene mRNA splicing RT-qPCR assay in cultured cells; format: cell-based, human; conditions: Homo sapiens, HEK293-H; concentration increasing full length SMN2 mRNA 1.5-fold relative to vehicle-treated cells; HEK293H cells with SMN2-A minigene, 24 hours, 7-point concentration data; read-out: EC1.5x for production of full length SMN2 mRNA
Procedure, shortened: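 HEK293H cells stably carrying the SMN2-A minigene were treated for 24 h at 37 °C with a 7-point, 3.16-fold dilution series of compound. Multiplex RT-qPCR measured exon 7-containing minigene FL mRNA against GAPDH, expressed relative to vehicle by modified ΔΔCt; the EC1.5× is the concentration giving a 1.5-fold increase.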

[2] = system: Smn protein in SMA patient fibroblast cells (GM03813); assay: Smn protein assay in cultured cells (SMN HTRF); format: cell-based, human; conditions: SMA patient fibroblast cells, 48 hours; for EC1.5x for Smn protein expression: 7-point concentration curve, SMN HTRF, concentration producing 1.5 times Smn protein vs DMSO vehicle control; for maximum fold (Fold) increase of Smn protein: 7-point concentration data, fold relative to vehicle control
Procedure, shortened: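 SMA patient fibroblasts (5,000 cells/well, DMEM-10% FBS) were treated for 48 h at 37 °C with a 7-point, 3.16-fold dilution series in triplicate. RIPA lysates were probed by HTRF (anti-SMN d2/kryptate, overnight, room temperature), reading 665/620 nm. EC1.5× is the concentration giving 1.5-fold Smn over DMSO vehicle.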

| Compound | EC (1.5-fold increase) [1] [µM] | EC1.5x for Smn protein expression [2] | maximum fold (Fold) increase of Smn protein [2] | melting point [°C] |
| --- | --- | --- | --- | --- |
| CCN1CC=C(c2ccc3nc(-c4cc5c(C)nc(C)cn5n4)cc(=O)n3c2)CC1 [Compound 351, 2-(4,6-dimethylpyrazolo[1,5-a]pyrazin-2-yl)-7-(1-ethyl-1,2,3,6-tetrahydropyridin-4-yl)-4H-pyrido[1,2-a]pyrimidin-4-one] | < 0.1 | **** (an EC1.5x≤0.3 μM is indicated by four stars (****)) | ***** (a fold increase >1.65 is indicated by five stars (*****)) | 202 to 204 |
| CCCN1CC=C(c2ccc3nc(-c4cc5c(C)nc(C)cn5n4)cc(=O)n3c2)CC1 [Compound 352, 2-(4,6-dimethylpyrazolo[1,5-a]pyrazin-2-yl)-7-(1-propyl-1,2,3,6-tetrahydropyridin-4-yl)-4H-pyrido[1,2-a]pyrimidin-4-one] | < 0.1 | **** (an EC1.5x≤0.3 μM is indicated by four stars (****)) | **** (a fold increase between >1.5 and ≤1.65 is indicated by four stars (****)) | 191 to 193 |
| Cc1cn2nc(-c3cc(=O)n4cc(C5=CCN(C(C)C)CC5)ccc4n3)cc2c(C)n1 [Compound 355, 2-(4,6-dimethylpyrazolo[1,5-a]pyrazin-2-yl)-7-[1-(propan-2-yl)-1,2,3,6-tetrahydropyridin-4-yl]-4H-pyrido[1,2-a]pyrimidin-4-one] | < 0.1 | *** (an EC1.5× between >0.3 μM and ≤1 μM is indicated by three stars (***)) | **** (a fold increase between >1.5 and ≤1.65 is indicated by four stars (****)) | 186 to 189 |
| Cc1cn2nc(-c3cc(=O)n4cc(C5=CCN(C6CCC6)CC5)ccc4n3)cc2c(C)n1 [Compound 356, 7-(1-cyclobutyl-1,2,3,6-tetrahydropyridin-4-yl)-2-(4,6-dimethylpyrazolo[1,5-a]pyrazin-2-yl)-4H-pyrido[1,2-a]pyrimidin-4-one] | < 0.1 | *** (an EC1.5× between >0.3 μM and ≤1 μM is indicated by three stars (***)) | **** (a fold increase between >1.5 and ≤1.65 is indicated by four stars (****)) | 191 to 193 |
| COc1ccc(-c2cc(=O)n3cc(N4CCNCC4)c(C)cc3n2)cc1OC [Compound 360, 2-(3,4-dimethoxyphenyl)-8-methyl-7-(piperazin-1-yl)-4H-pyrido[1,2-a]pyrimidin-4-one] | 1 to 3 |  | * (A maximum fold increase of ≤1.2 is indicated by one star (*)) | 161 to 169 |
| COc1ccc(-c2cc(=O)n3cc(C4=CCN(C5CCC5)CC4)ccc3n2)cc1OC [Compound 362, 7-(1-cyclobutyl-1,2,3,6-tetrahydropyridin-4-yl)-2-(3,4-dimethoxyphenyl)-4H-pyrido[1,2-a]pyrimidin-4-one] | 0.3 to 1 |  | *** (a fold increase between >1.35 and ≤1.5 is indicated by three stars (***)) | 152 to 154 |
| COc1ccc(-c2cc(=O)n3cc(C4=CCN(C(C)C)CC4)ccc3n2)cc1OC [Compound 363, 2-(3,4-dimethoxyphenyl)-7-[1-(propan-2-yl)-1,2,3,6-tetrahydropyridin-4-yl]-4H-pyrido[1,2-a]pyrimidin-4-one] | 0.3 to 1 |  | ** (a fold increase between >1.2 and ≤1.35 is indicated by two stars (**)) | 116 to 118 |
| COc1ccc(-c2cc(=O)n3cc(C4=CCN(C5COC5)CC4)ccc3n2)cc1OC [Compound 364, 2-(3,4-dimethoxyphenyl)-7-[1-(oxetan-3-yl)-1,2,3,6-tetrahydropyridin-4-yl]-4H-pyrido[1,2-a]pyrimidin-4-one] | 1 to 3 |  | * (A maximum fold increase of ≤1.2 is indicated by one star (*)) | 178 to 180 |
| CCCN1CC=C(c2ccc3nc(-c4ccc(OC)c(OC)c4)cc(=O)n3c2)CC1 [Compound 365, 2-(3,4-dimethoxyphenyl)-7-(1-propyl-1,2,3,6-tetrahydropyridin-4-yl)-4H-pyrido[1,2-a]pyrimidin-4-one] | 0.1 to 0.3 |  | *** (a fold increase between >1.35 and ≤1.5 is indicated by three stars (***)) | 158 to 160 |
| CNC1CC=C(c2ccc3nc(-c4ccc(OC)c(OC)c4)cc(=O)n3c2)CC1 (stereo not shown) [Compound 366, 2-(3,4-dimethoxyphenyl)-7-[4-(methylamino)cyclohex-1-en-1-yl]-4H-pyrido[1,2-a]pyrimidin-4-one] | < 0.1 | **** (an EC1.5x≤0.3 μM is indicated by four stars (****)) | **** (a fold increase between >1.5 and ≤1.65 is indicated by four stars (****)) | 232 to 235 |
| COc1ccc(-c2cc(=O)n3cc(C4=CCC(N(C)C)CC4)ccc3n2)cc1OC (stereo not shown) [Compound 367, 2-(3,4-dimethoxyphenyl)-7-[4-(dimethylamino)cyclohex-1-en-1-yl]-4H-pyrido[1,2-a]pyrimidin-4-one] | < 0.1 | * (An EC1.5× for Smn protein expression between >3 μM and ≤10 μM is indicated by one star (*)) | *** (a fold increase between >1.35 and ≤1.5 is indicated by three stars (***)) | 162 to 164 |
| CCN(C)C1CC=C(c2ccc3nc(-c4ccc(OC)c(OC)c4)cc(=O)n3c2)CC1 (stereo not shown) [Compound 368, 2-(3,4-dimethoxyphenyl)-7-{4-[ethyl(methyl)amino]cyclohex-1-en-1-yl}-4H-pyrido[1,2-a]pyrimidin-4-one] | < 0.1 | *** (an EC1.5× between >0.3 μM and ≤1 μM is indicated by three stars (***)) | **** (a fold increase between >1.5 and ≤1.65 is indicated by four stars (****)) | 132 to 134 |
| CCCN(C)C1CC=C(c2ccc3nc(-c4ccc(OC)c(OC)c4)cc(=O)n3c2)CC1 (stereo not shown) [Compound 369, 2-(3,4-dimethoxyphenyl)-7-{4-[methyl(propyl)amino]cyclohex-1-en-1-yl}-4H-pyrido[1,2-a]pyrimidin-4-one] | < 0.1 | ** (an EC1.5× between >1 μM and ≤3 μM is indicated by two stars (**)) | *** (a fold increase between >1.35 and ≤1.5 is indicated by three stars (***)) | 116 to 118 |
| CCN1CC=C(c2ccc3nc(-c4ccc(OC)c(OC)c4)cc(=O)n3c2)CC1 [Compound 370, 2-(3,4-dimethoxyphenyl)-7-(1-ethyl-1,2,3,6-tetrahydropyridin-4-yl)-4H-pyrido[1,2-a]pyrimidin-4-one] | 0.1 to 0.3 | *** (an EC1.5× between >0.3 μM and ≤1 μM is indicated by three stars (***)) | ***** (a fold increase >1.65 is indicated by five stars (*****)) | 170 to 172 |
| COc1ccc(-c2ccc3nc(C4=CCNCC4)cc(=O)n3c2)cc1OC [Compound 371, 7-(3,4-dimethoxyphenyl)-2-(1,2,3,6-tetrahydropyridin-4-yl)-4H-pyrido[1,2-a]pyrimidin-4-one] | 0.1 to 0.3 | *** (an EC1.5× between >0.3 μM and ≤1 μM is indicated by three stars (***)) | **** (a fold increase between >1.5 and ≤1.65 is indicated by four stars (****)) | 172 to 178 |
| Cc1cn2cc(-c3cc(=O)n4cc(N5CCN(C(C)C)CC5)ccc4n3)cc(F)c2n1 [Compound 373, 2-(8-fluoro-2-methylimidazo[1,2-a]pyridin-6-yl)-7-[4-(propan-2-yl)piperazin-1-yl]-4H-pyrido[1,2-a]pyrimidin-4-one] | < 0.1 | **** (an EC1.5x≤0.3 μM is indicated by four stars (****)) | **** (a fold increase between >1.5 and ≤1.65 is indicated by four stars (****)) | 260 to 264 |
| Cc1cn2cc(-c3cc(=O)n4cc(N5CCN(C(C)C)CC5)ccc4n3)cc(Cl)c2n1 [Compound 374, 2-(8-chloro-2-methylimidazo[1,2-a]pyridin-6-yl)-7-[4-(propan-2-yl)piperazin-1-yl]-4H-pyrido[1,2-a]pyrimidin-4-one] | < 0.1 | **** (an EC1.5x≤0.3 μM is indicated by four stars (****)) | ***** (a fold increase >1.65 is indicated by five stars (*****)) | 287 to 292 |
| Cc1cn2cc(-c3ccc4nc(C5=CCNCC5)cc(=O)n4c3)ccc2n1 [Compound 375, 7-(2-methylimidazo[1,2-a]pyridin-6-yl)-2-(1,2,3,6-tetrahydropyridin-4-yl)-4H-pyrido[1,2-a]pyrimidin-4-one] | < 0.1 | **** (an EC1.5x≤0.3 μM is indicated by four stars (****)) | **** (a fold increase between >1.5 and ≤1.65 is indicated by four stars (****)) | 197 to 201 |
